Test results reported in a flash point compilation (Sun et al. 2020).

Work on `C=COC=C` [divinylether] yielded a flash point of -47 °C. In the case of `CCCCCC#CC(=O)OC` [methyl2-octynoate], the flash point is reported as 89 °C. For `CCC(C)(C)O` [2-methyl-2-butanol], the flash point was 21 °C. For `Cc1ccc(Cl)cc1` [4-chlorotoluene], the flash point was 46 °C. In the case of `C#CCCC(C)C` [5-methyl-1-hexyne], the flash point is reported as -7 °C. In the case of `CCC(C)SC(C)CC` (stereo not drawn) [di-sec-butylsulfide], the flash point is reported as 39 °C. For `CC1CC=CCC1` (stereo not drawn) [4-methylcyclohexene], the flash point was -1 °C. In the case of `CCC(=O)O` [propionicacid], the flash point is reported as 58 °C. Molecule `CCCCCCC(=O)OC` [methylheptanoate] has a flash point of 52 °C. Work on `CCN(CC)C(C)=O` [N,N-diethylacetamide] yielded a flash point of 76 °C. Molecule `c1ccc(Cc2ccccc2)cc1` [diphenylmethane] has a flash point of 127 °C. Work on `CCCSCCC` [dipropylsulfide] yielded a flash point of 28 °C. Work on `CCCC(=O)c1ccccc1` [1-phenyl-1-butanone] yielded a flash point of 88 °C. Molecule `CCCCCCCCCC=O` [decanal] has a flash point of 83 °C. For `CCC(C)Cl` (stereo not drawn) [2-chlorobutane], the flash point was -15 °C. Molecule `CCSSCC` [diethyldisulfide] has a flash point of 39 °C. In the case of `Cc1ccc(C)c(C)c1` [1,2,4-trimethylbenzene], the flash point is reported as 46 °C. For `CC1(C)CCCC1=O` [2,2-dimethylcyclopentanone], the flash point was 33 °C. `CCC(C)C(C)=O` (stereo not drawn) [3-methyl-2-pentanone] gave a flash point of 12 °C. For `CC(C)CC#N` [3-methylbutanenitrile], the flash point was 28 °C. With `O=C1C=CCCC1` [2-cyclohexen-1-one] the flash point was 56 °C. With `CC(=O)O` [aceticacid] the flash point was 40 °C. For `CCC1CCC(=O)C1` (stereo not drawn) [3-ethylcyclopentanone], the flash point was 46 °C. `CCCC(C)(C)CCC` [4,4-dimethylheptane] showed a flash point of 15 °C. In the case of `ClC1CCCC1` [chlorocyclopentane], the flash point is reported as 15 °C. `CC(C)=O` [acetone] gave a flash point of -20 °C. Molecule `CCCCOCCOC(C)=O` [2-butoxyethylacetate] has a flash point of 71 °C. Work on `c1ccc2ncccc2c1` [quinoline] yielded a flash point of 101 °C. Work on `O=C1CCCCC1` [cyclohexanone] yielded a flash point of 43 °C. With `Cc1cccnc1` [3-picoline] the flash point was 36 °C. `NCCCN` [1,3-propanediamine] gave a flash point of 48 °C. In the case of `CCCC(S)CC` (stereo not drawn) [3-hexanethiol], the flash point is reported as 30 °C. With `C=CCCCCO` [5-hexen-1-ol] the flash point was 47 °C. Molecule `CC(Cl)CCl` (stereo not drawn) [1,2-dichloropropane] has a flash point of 13 °C. Molecule `C=CCOC(=O)CCC` [allylbutanoate] has a flash point of 42 °C. `CCc1ccccc1N` [2-ethylaniline] showed a flash point of 85 °C. In the case of `CCc1cccs1` [2-ethylthiophene], the flash point is reported as 21 °C. Work on `CC(C)COC=O` [isobutylformate] yielded a flash point of 4 °C. `CCCCCCCCCO` [1-nonanol] gave a flash point of 98 °C. For `CCCc1ccccc1O` [2-propylphenol], the flash point was 93 °C. `CCCCI` [1-iodobutane] gave a flash point of 33 °C. With `CCNC=O` [N-ethylformamide] the flash point was 86 °C. In the case of `CC(C)(C)C1CCC(=O)C1` (stereo not drawn) [3-tert-butylcyclopentanone], the flash point is reported as 64 °C. Work on `C1=COCC1` [2,3-dihydrofuran] yielded a flash point of -24 °C. `CCc1cccc(N)c1` [3-ethylaniline] showed a flash point of 85 °C. For `CCC(C)C(C)C(C)(C)C` (stereo not drawn) [2,2,3,4-tetramethylhexane], the flash point was 31 °C. `CC(C)C(=O)OC(=O)C(C)C` [isobutanoicanhydride] showed a flash point of 67 °C. Molecule `C=CCCCO` [4-penten-1-ol] has a flash point of 43 °C. `CCCCCCCN` [heptylamine] gave a flash point of 44 °C. With `CCC(=O)CC` [3-pentanone] the flash point was 7 °C. Work on `C=CCSCCC` [allylpropylsulfide] yielded a flash point of 29 °C. In the case of `CCCCCCCCCCC(C)C` [2-methyldodecane], the flash point is reported as 71 °C. Molecule `C=CCOCC=C` [diallylether] has a flash point of -7 °C. For `CCCCCC1CCCC1=O` (stereo not drawn) [2-pentylcyclopentanone], the flash point was 78 °C. Work on `CCc1cc(C)ccc1C` [2-ethyl-1,4-dimethylbenzene] yielded a flash point of 56 °C. `CC(C)CCO` [3-methyl-1-butanol] showed a flash point of 43 °C. Molecule `CCCC(C)CC(C)CC` (stereo not drawn) [3,5-dimethyloctane] has a flash point of 41 °C. For `Cc1ccc(F)cc1` [4-fluorotoluene], the flash point was 12 °C. For `BrC1CCCCC1` [bromocyclohexane], the flash point was 62 °C. In the case of `CC(Cl)CO` (stereo not drawn) [2-chloro-1-propanol], the flash point is reported as 51 °C. Work on `C=CC(=O)OCC(CC)CCCC` (stereo not drawn) [2-ethylhexylacrylate] yielded a flash point of 86 °C. In the case of `CCCCCCO` [1-hexanol], the flash point is reported as 59 °C. Molecule `CC(O)CN` (stereo not drawn) [1-amino-2-propanol] has a flash point of 67 °C. In the case of `CCCC(=O)O` [butanoicacid], the flash point is reported as 69 °C. `CCC(C)OC(C)=O` (stereo not drawn) [sec-butylacetate] showed a flash point of 16 °C. `CCC(C)(C)C(C)(C)CC` [3,3,4,4-tetramethylhexane] showed a flash point of 31 °C. Molecule `CCCC(C)CC(C)C` (stereo not drawn) [2,4-dimethylheptane] has a flash point of 15 °C. `Cc1ccc(C)c(C)c1C` [1,2,3,4-tetramethylbenzene] gave a flash point of 68 °C. In the case of `CC(C)(C)SC(C)(C)C` [di-tert-butylsulfide], the flash point is reported as 27 °C. With `CCC(=O)OCc1ccccc1` [benzylpropanoate] the flash point was 96 °C. `CC(C)(C)C1CCCCC1` [tert-butylcyclohexane] gave a flash point of 40 °C. Molecule `CCCCO` [1-butanol] has a flash point of 34 °C. For `CCC(C)(CC)C(C)C` [3-ethyl-2,3-dimethylpentane], the flash point was 15 °C. In the case of `CC1=CC2C(CC1)C2(C)C` (stereo not drawn) [2-carene], the flash point is reported as 38 °C. `COC(C)C` [isopropylmethylether] gave a flash point of -47 °C. Work on `C=C(C)C(=O)OC` [methylmethacrylate] yielded a flash point of 10 °C. Molecule `CCCC(CC)C(C)CC` (stereo not drawn) [4-ethyl-3-methylheptane] has a flash point of 41 °C. `C=CCCCCC` [1-heptene] showed a flash point of -9 °C. `C=C(CC)CC` [2-ethyl-1-butene] showed a flash point of -26 °C. `CCC(C)C(C)CC` (stereo not drawn) [3,4-dimethylhexane] showed a flash point of 6 °C. In the case of `C=C(C)C(=O)OC1CCCCC1` [cyclohexylmethacrylate], the flash point is reported as 82 °C. For `CC(C)(C)c1ccc(N)cc1` [4-tert-butylaniline], the flash point was 102 °C. For `SCCCCCS` [1,5-pentanedithiol], the flash point was 95 °C. Molecule `CCOC(=O)CC(C)=O` [ethylacetoacetate] has a flash point of 70 °C. Molecule `CCCCCCOC(=O)CC` [hexylpropanoate] has a flash point of 65 °C. Molecule `CC(C)CCC(C)(C)C` [2,2,5-trimethylhexane] has a flash point of 13 °C. Molecule `CCOC(CC)OCC` [1,1-diethoxypropane] has a flash point of 13 °C. `CCCCCCCCBr` [1-bromooctane] gave a flash point of 78 °C. `CCCCCCCCOC(C)=O` [octylacetate] showed a flash point of 82 °C. With `CN1CCOCC1` [N-methylmorpholine] the flash point was 14 °C. For `CC#N` [acetonitrile], the flash point was 2 °C. In the case of `CCCCCCCCCCC(C)=O` [2-dodecanone], the flash point is reported as 108 °C. With `CCC(C)C(C)O` (stereo not drawn) [3-methyl-2-pentanol] the flash point was 41 °C. In the case of `CCCCCCCCC(C)O` (stereo not drawn) [2-decanol], the flash point is reported as 85 °C. With `CCC(CC)(CC)CC` [3,3-diethylpentane] the flash point was 21 °C. `CCCCC(=O)OCC` [ethylpentanoate] gave a flash point of 35 °C. Work on `CCC(O)C(C)C` (stereo not drawn) [2-methyl-3-pentanol] yielded a flash point of 46 °C. `COCCNCCOC` [bis(2-methoxyethyl)amine] gave a flash point of 58 °C. For `CCOC(=O)C=Cc1ccccc1` [ethylcinnamate], the flash point was 135 °C. For `CC1C=CCCC1` (stereo not drawn) [3-methylcyclohexene], the flash point was -3 °C. Work on `CCOC(=O)CCl` [ethylchloroacetate] yielded a flash point of 53 °C. For `CCCCCN` [pentylamine], the flash point was 4 °C. Work on `CCCCCC(C)C(C)C` (stereo not drawn) [2,3-dimethyloctane] yielded a flash point of 36 °C. In the case of `CCCC(=O)OCC` [ethylbutanoate], the flash point is reported as 20 °C. `CCCCCCC(C)O` (stereo not drawn) [2-octanol] showed a flash point of 72 °C. `ClCCCl` [1,2-dichloroethane] gave a flash point of 13 °C. Work on `C=C(C)C(C)CC` (stereo not drawn) [2,3-dimethyl-1-pentene] yielded a flash point of -17 °C. For `C/C=C\CCCC` [cis-2-heptene], the flash point was -6 °C. For `CCc1ccccc1` [ethylbenzene], the flash point was 21 °C. `CC(C)C(C)C(C)C` [2,3,4-trimethylpentane] gave a flash point of -0 °C. `CCCCCC(=O)OC(=O)CCCCC` [hexanoicanhydride] gave a flash point of 113 °C. With `CCCCCCCCC=O` [nonanal] the flash point was 63 °C. Molecule `CCC#CCCCCCCCl` [10-chloro-3-decyne] has a flash point of 86 °C. For `CC/C=C/CC` [trans-3-hexene], the flash point was -25 °C. `CC/C=C/CCCC` [trans-3-octene] gave a flash point of 9 °C. Work on `Cc1ccccc1N` [o-toluidine] yielded a flash point of 85 °C. With `COC(=O)c1ccccc1` [methylbenzoate] the flash point was 80 °C. `CCC(S)(CC)CC` [3-ethyl-3-pentanethiol] showed a flash point of 34 °C. With `CC1CCC(=O)C1` (stereo not drawn) [3-methylcyclopentanone] the flash point was 34 °C. `CC(=O)CCC(C)C` [5-methyl-2-hexanone] gave a flash point of 36 °C. In the case of `CC(=O)OC(C)C` [isopropylacetate], the flash point is reported as 2 °C. `CCc1ccc(CC)cc1` [p-diethylbenzene] gave a flash point of 55 °C. `CCC(N)CC` [3-pentanamine] showed a flash point of 2 °C. With `CCCOC(=O)OCCC` [dipropylcarbonate] the flash point was 55 °C. With `C#CCCCCCCCCCCC` [1-tridecyne] the flash point was 93 °C. Molecule `CCC/C=C\CCC` [cis-4-octene] has a flash point of 17 °C. Molecule `CC(C)CNCC(C)C` [diisobutylamine] has a flash point of 30 °C. Molecule `CC(C)(C)c1cccc(N)c1` [3-tert-butylaniline] has a flash point of 101 °C.
